For data set [1], the system named is SMN2 minigene mRNA (SMN2-A minigene) in HEK293H cells. The data set is described as follows: SMN2 minigene mRNA splicing RT-qPCR assay in cultured cells. Type of data set: cell-based, human. Conditions: Homo sapiens, HEK293-H; concentration increasing full length SMN2 mRNA 1.5-fold relative to vehicle-treated cells; HEK293H cells with SMN2-A minigene, 24 hours, 7-point concentration data; read-out: EC1.5x for production of full length SMN2 mRNA. A digest of the protocol:
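Read-out: minigene-specific full-length (exon 7-included) SMN2 mRNA by one-step multiplex RT-qPCR, normalized to GAPDH and divided by vehicle-treated level. Stable SMN2-A minigene HEK293H cells, 24 h compound exposure, 7 concentrations in duplicate. EC1.5× = concentration raising FL mRNA 1.5-fold.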
For orientation: In qPCR the cycle at which signal appears reflects the starting amount.

Data set [2] deals with Smn protein in SMA patient fibroblast cells (GM03813). The data set is described as follows: Smn protein assay in cultured cells (SMN HTRF). Type of data set: cell-based, human. Conditions: SMA patient fibroblast cells, 48 hours; for EC1.5x for Smn protein expression: 7-point concentration curve, SMN HTRF, concentration producing 1.5 times Smn protein vs DMSO vehicle control; for maximum fold (Fold) increase of Smn protein: 7-point concentration data, fold relative to vehicle control. Put shortly:
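Read-out: HTRF 665/620 nm ratio, blank-subtracted as ΔF, then expressed as fold over DMSO vehicle. Fibroblasts from SMA patients were exposed to compounds for 48 h (7 points, 3.16-fold steps, triplicates). Values are EC1.5× and maximum fold Smn increase.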
A general note: In TR-FRET formats the signal depends on donor and acceptor labels being close together.

Some results are limits rather than exact numbers.

Regarding `CCc1cc(-c2cc(=O)n3cc(C4CCN(CC)CC4)ccc3n2)cn2cc(C)nc12` [Compound 698, 2-(8-ethyl-2-methylimidazo[1,2-a]pyridin-6-yl)-7-(1-ethylpiperidin-4-yl)-4H-pyrido[1,2-a]pyrimidin-4-one], the melting point – broadly, the temperature of the solid-liquid transition – was 196 to 200 °C. For the same compound, in data set [1], the EC (1.5-fold increase) is under 0.1 µM. Also, in data set [2], the “EC1.5x for Smn protein expression” value is “**** (an EC1.5x≤0.3 μM is indicated by four stars (****))” and the “maximum fold (Fold) increase of Smn protein” value (from here on “maximum fold (Fold) increase”) is recorded as “***** (a fold increase >1.65 is indicated by five stars (*****))”.
On to `COc1ccc(-c2cc(=O)n3cc(N4C[C@@H](C)N[C@@H](C)C4)ccc3n2)cc1OC` [Compound 14, 2-(3,4-dimethoxyphenyl)-7-[(3R,5S)-3,5-dimethylpiperazin-1-yl]-4H-pyrido[1,2-a]pyrimidin-4-one], for which the melting point was 182 to 187 °C. In addition, the EC (1.5-fold increase) in data set [1] was in the range of 1 to 3 µM. In addition, the “maximum fold (Fold) increase” value in data set [2] is “*** (a fold increase between >1.35 and ≤1.5 is indicated by three stars (***))”.
Turning to `Cc1cn2nc(-c3cc(=O)n4cc(N5CC[C@H](CN)C5)ccc4n3)cc2c(C)n1` [Compound 797, 7-[(3R)-3-(aminomethyl)pyrrolidin-1-yl]-2-(4,6-dimethylpyrazolo[1,5-a]pyrazin-2-yl)-4H-pyrido[1,2-a]pyrimidin-4-one], the melting point lay within 214 to 217 °C. Further, the EC (1.5-fold increase) in data set [1] is 1 to 3 µM. For the same compound, in data set [2], the “EC1.5x for Smn protein expression” value is “* (An EC1.5× for Smn protein expression between >3 μM and ≤10 μM is indicated by one star (*))”; the “maximum fold (Fold) increase” value was “*** (a fold increase between >1.35 and ≤1.5 is indicated by three stars (***))”.
For the compound `CN1CC=C(c2ccc3nc(-c4ccc(N(C)C)nc4)cc(=O)n3c2)CC1` [Compound 450, 2-[6-(dimethylamino)pyridin-3-yl]-7-(1-methyl-1,2,3,6-tetrahydropyridin-4-yl)-4H-pyrido[1,2-a]pyrimidin-4-one], the melting point lay within 214 to 216 °C. The EC (1.5-fold increase) in data set [1] fell in the range of 0.3 to 1 µM. In addition, the “maximum fold (Fold) increase” value in data set [2] was “** (a fold increase between >1.2 and ≤1.35 is indicated by two stars (**))”.
`Cc1cn2cc(-c3cc(=O)n4cc(N5CCC(N(C)C)CC5)ccc4n3)ccc2n1` [Compound 432, 7-[4-(dimethylamino)piperidin-1-yl]-2-(2-methylimidazo[1,2-a]pyridin-6-yl)-4H-pyrido[1,2-a]pyrimidin-4-one]: the melting point was in the range of 204 to 206 °C. In data set [1], the EC (1.5-fold increase) was under 0.1 µM. In data set [2], the “EC1.5x for Smn protein expression” value was “**** (an EC1.5x≤0.3 μM is indicated by four stars (****))” and the “maximum fold (Fold) increase” value is “***** (a fold increase >1.65 is indicated by five stars (*****))”.
Compound `CCc1nc(C)cn2nc(-c3cc(=O)n4cc(C5CCN(C6CC6)CC5)ccc4n3)cc12` [Compound 680, 7-(1-cyclopropylpiperidin-4-yl)-2-(4-ethyl-6-methylpyrazolo[1,5-a]pyrazin-2-yl)-4H-pyrido[1,2-a]pyrimidin-4-one] gave a melting point of 196 to 199 °C. For the same compound, the EC (1.5-fold increase) in data set [1] was under 0.1 µM. In addition, in data set [2], the “EC1.5x for Smn protein expression” value is listed as “**** (an EC1.5x≤0.3 μM is indicated by four stars (****))” and the “maximum fold (Fold) increase” value is reported as “***** (a fold increase >1.65 is indicated by five stars (*****))”.
In turn, `O=c1cc(-c2ccc(O)c(OC(F)(F)F)c2)nc2ccc(N3CCNCC3)cn12` [Cpd 82, 2-[4-hydroxy-3-(trifluoromethoxy)phenyl]-7-(piperazin-1-yl)-4H-pyrido[1,2-a]pyrimidin-4-one] came in with a melting point of 245 to 248 °C. Besides, the EC (1.5-fold increase) in data set [1] was 1 to 3 µM. In data set [2], the “EC1.5x for Smn protein expression” value is “** (an EC1.5× between >1 μM and ≤3 μM is indicated by two stars (**))”; the “maximum fold (Fold) increase” value is listed as “***** (a fold increase >1.65 is indicated by five stars (*****))”.
The compound `CCc1nc(C)cn2nc(-c3cc(=O)n4cc(N5CCN(C(C)C)CC5)ccc4n3)cc12` [Compound 619, 2-(4-ethyl-6-methylpyrazolo[1,5-a]pyrazin-2-yl)-7-[4-(propan-2-yl)piperazin-1-yl]-4H-pyrido[1,2-a]pyrimidin-4-one] gave a melting point of 255 to 258 °C. Moreover, the EC (1.5-fold increase) in data set [1] was in the range of 0.1 to 0.3 µM. In data set [2], the “EC1.5x for Smn protein expression” value was “*** (an EC1.5× between >0.3 μM and ≤1 μM is indicated by three stars (***))”; the “maximum fold (Fold) increase” value is listed as “***** (a fold increase >1.65 is indicated by five stars (*****))”.
`CCN1CCN(c2cc(C)c3nc(-c4cc5c(C)nc(C)cn5n4)cc(=O)n3c2)C[C@H]1C` [Compound 511, 2-(4,6-dimethylpyrazolo[1,5-a]pyrazin-2-yl)-7-[(3R)-4-ethyl-3-methylpiperazin-1-yl]-9-methyl-4H-pyrido[1,2-a]pyrimidin-4-one] gave a melting point of 240 to 245 °C. Moreover, in data set [1], the EC (1.5-fold increase) was under 0.1 µM. Also, in data set [2], the “EC1.5x for Smn protein expression” value is “** (an EC1.5× between >1 μM and ≤3 μM is indicated by two stars (**))”; the “maximum fold (Fold) increase” value is “**** (a fold increase between >1.5 and ≤1.65 is indicated by four stars (****))”.
`Cc1cn2cc(-c3cc(=O)n4cc(N5CCNCC5)ccc4n3)ccc2n1` [Cpd 109, 2-(2-methylimidazo[1,2-a]pyridin-6-yl)-7-(piperazin-1-yl)-4H-pyrido[1,2-a]pyrimidin-4-one] displayed a melting point of 259 to 267 °C. The EC (1.5-fold increase) in data set [1] is under 0.1 µM. In addition, in data set [2], the “EC1.5x for Smn protein expression” value is listed as “**** (an EC1.5x≤0.3 μM is indicated by four stars (****))”; the “maximum fold (Fold) increase” value is “**** (a fold increase between >1.5 and ≤1.65 is indicated by four stars (****))”.
As for `Cc1cn2ccc(-c3cc(=O)n4cc(N5CCN(C)CC5)ccc4n3)cc2n1` [Compound 557, 2-(2-methylimidazo[1,2-a]pyridin-7-yl)-7-(4-methylpiperazin-1-yl)-4H-pyrido[1,2-a]pyrimidin-4-one], the melting point was 285 to 288 °C. Moreover, in data set [1], the EC (1.5-fold increase) lay within 1 to 3 µM. Besides, the “maximum fold (Fold) increase” value in data set [2] is recorded as “* (A maximum fold increase of ≤1.2 is indicated by one star (*))”.
Compound `COc1ccc(-c2cc(=O)n3cc(N4CCN(C)CC4)cc(C)c3n2)cc1OC` [Compound 344, 2-(3,4-dimethoxyphenyl)-9-methyl-7-(4-methylpiperazin-1-yl)-4H-pyrido[1,2-a]pyrimidin-4-one] displayed a melting point of 191 to 198 °C. Also, the EC (1.5-fold increase) in data set [1] fell in the range of 0.1 to 0.3 µM. Further, in data set [2], the “EC1.5x for Smn protein expression” value was “*** (an EC1.5× between >0.3 μM and ≤1 μM is indicated by three stars (***))”; the “maximum fold (Fold) increase” value is “***** (a fold increase >1.65 is indicated by five stars (*****))”.
`Cc1nc2ccc(-c3cc(=O)n4cc(N5CCN[C@@H](C)C5)ccc4n3)cc2o1` [Compound 134, 2-(2-methyl-1,3-benzoxazol-6-yl)-7-[(3S)-3-methylpiperazin-1-yl]-4H-pyrido[1,2-a]pyrimidin-4-one]: the melting point fell in the range of 191 to 193 °C. In data set [1], the EC (1.5-fold increase) is under 0.1 µM. In data set [2], the “EC1.5x for Smn protein expression” value is recorded as “**** (an EC1.5x≤0.3 μM is indicated by four stars (****))” and the “maximum fold (Fold) increase” value is reported as “***** (a fold increase >1.65 is indicated by five stars (*****))”.

Values taken from patent publication US11753407B2, “Compounds for treating spinal muscular atrophy” (PTC Therapeutics, Inc., priority 2012, dated 2023).
